pIC50: −log10 of the molar value. Like-named read-outs stand apart in the source and are kept apart here.
Experiments:
hSERT = molecular target: T1, hSERT (Homo sapiens, UniProt P31645); test: Transporter uptake inhibition in HEK293 cells expressing hSERT; type: cell-based; settings: [3H]-5-HT uptake; for pIC50: mean (95% confidence interval)
T1 construct: yellow fluorescent protein (YFP); expressed in transfected cells
Method: (§1) The generation of HEK293 cells stably expressing the human isoforms of DAT (hDAT) and NET (hNET) was carried out as described previously (Scholze et al., 2002). For SERT, the human isoform (hSERT) was cloned in frame with yellow fluorescent protein (Schmid et al., 2001). The generation of a stable cell line was performed as described by Hilber and colleagues (Hilber et al., 2005). HEK293 cells were maintained in humidified atmosphere (5% CO2, 37°C) in DMEM, supplemented with 10% heat‐inactivated FBS and penicillin (100 u 100 mL^−1) and streptomycin (100 μg 100 mL^−1). Selection pressure was maintained by adding geneticin (50 μg·mL^−1) to the cell culture media.
Uptake experiments were conducted as described previously (Sitte et al., 2001) with minor modifications. In brief, HEK293 cells expressing hDAT, hNET or hSERT were seeded into poly‐D‐lysine (PDL) coated 96‐well plates at a density of 40 000 cells per well. The next day, DMEM was aspirated and replaced with Krebs HEPES buffer (KHB, 25 mM HEPES, 120 mM NaCl, 5 mM KCl, 1.2 mM CaCl2, and 1.2 mM MgSO4, 5 mM D‐glucose, pH adjusted to 7.3 with NaOH) (200 μL per well), and cells were pre‐incubated with various concentrations of mephedrone or its metabolites for 5 min (50 μL per well). Subsequently, 0.1 μM of [^3H]‐5‐HT or 0.02 μM of [^3H]‐MPP^+ were added, and uptake was terminated after 1 (hSERT) or 3 min (hDAT, hNET) by washing the cells with 200 μL of ice‐cold KHB. Cells were lysed with 1% SDS, and tritium uptake was determined by scintillation counting. Nonspecific uptake was determined in the presence of 10 μM paroxetine (hSERT) or 10 μM mazindol (hDAT and hNET).
(§2) Calculations were performed using Microsoft Excel® 2010 (Microsoft Corporation, Redmond, WA, USA) and GRAPHPAD PRISM 5.0. (GraphPad Software Inc., La Jolla, CA, USA). IC50 values for uptake inhibition and EC50 values for release were determined by nonlinear regression fits. Release data expressed as AUC were analysed by one‐way ANOVA followed by Bonferroni's multiple comparison test. Microdialysis and locomotor data were analysed by two‐way ANOVA (drug treatment × time) followed by Bonferroni's test. The effect of monensin treatment on basal efflux of tritiated substrate was analysed with the Mann–Whitney test. P values less than 0.05 (i.e. P < 0.05) were considered significant. The data and statistical analysis comply with the recommendations on experimental design and analysis in pharmacology (Curtis et al., 2015).

hDAT = molecular target: T2, hDAT (Homo sapiens, UniProt Q01959); test: Transporter release (superfusion) assay in HEK293 cells expressing hDAT; type: cell-based; settings: test drug 10 μM, monensin 10 μM; post hoc Bonferroni
T2 construct: expressed in transfected cells
T2 sequence (Q01959 whole entry, the tested form may be a part): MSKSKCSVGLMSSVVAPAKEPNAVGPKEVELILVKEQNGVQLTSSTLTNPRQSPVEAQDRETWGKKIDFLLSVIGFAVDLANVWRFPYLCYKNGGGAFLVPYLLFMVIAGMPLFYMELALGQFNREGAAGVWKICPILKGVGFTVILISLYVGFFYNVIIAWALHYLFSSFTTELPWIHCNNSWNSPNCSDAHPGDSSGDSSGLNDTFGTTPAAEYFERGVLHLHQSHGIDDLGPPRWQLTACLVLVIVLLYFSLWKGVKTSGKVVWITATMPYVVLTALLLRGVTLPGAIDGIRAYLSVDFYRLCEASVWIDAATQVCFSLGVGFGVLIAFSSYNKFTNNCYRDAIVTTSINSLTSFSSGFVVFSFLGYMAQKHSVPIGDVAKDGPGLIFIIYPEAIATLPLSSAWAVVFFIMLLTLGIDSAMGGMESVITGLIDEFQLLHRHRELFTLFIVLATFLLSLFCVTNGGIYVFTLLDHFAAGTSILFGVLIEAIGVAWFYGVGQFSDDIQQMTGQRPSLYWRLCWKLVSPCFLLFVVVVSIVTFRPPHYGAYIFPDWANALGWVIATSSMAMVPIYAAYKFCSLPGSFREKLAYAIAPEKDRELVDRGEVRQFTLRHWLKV
Method: as §1
Superfusion experiments were performed as described previously (Scholze et al., 2002). Briefly, HEK293 cells expressing the desired transporter were seeded at a density of 40 000 cells per well onto poly‐D‐lysine‐coated 5 mm glass cover slips in 96‐well plates 24 h prior to the experiment. Cells were preloaded with [^3H]‐MPP^+ (0.1 μM, hDAT and hNET) or [^3H]‐5‐HT (0.4 μM, hSERT) for 20 min at 37°C in a final volume of 100 μL per well. Subsequently, glass coverslips were transferred into small superfusion chambers (volume of 200 μL) and superfused with KHB at 25°C with a superfusion rate of 0.7 mL·min^−1 for 40 min to establish a stable basal efflux. After washout, the collection of 2‐min fractions was initiated. After the first three basal fractions, monensin (10 μM) or solvent was added for four fractions. Consequently, the cells were challenged with test drugs (10 μM) for five fractions in the presence or absence of monensin. Finally, the cells were lysed in 1% SDS to determine the total radioactivity. Radioactivity per fraction was assessed by a liquid scintillation counter and expressed as fractional release, that is, the percentage of released ^3H in relation to total ^3H present at the beginning of the fraction (Sitte et al., 2000). For analysis, release was expressed as AUC.
as §2
Data from uptake inhibition assays cannot distinguish whether test drugs act as non‐transported inhibitors or transportable substrates, which evoke release (Scholze et al., 2000; Sitte et al., 2000; Baumann et al., 2013). Therefore, mephedrone and its metabolites were tested in release assays to further explore their interaction with transporters. The release assays were performed with the same transporter‐expressing HEK293 cell lines described above and used a superfusion system (Sitte et al., 2000). As described previously, efflux of preloaded [^3H]‐MPP^+ or [^3H]‐5‐HT was monitored in the presence or absence of monensin (10 μM) (Scholze et al., 2000). […]

[1] = IC50 on uptake mediated by hSERT

T1 sequence (P31645 whole entry): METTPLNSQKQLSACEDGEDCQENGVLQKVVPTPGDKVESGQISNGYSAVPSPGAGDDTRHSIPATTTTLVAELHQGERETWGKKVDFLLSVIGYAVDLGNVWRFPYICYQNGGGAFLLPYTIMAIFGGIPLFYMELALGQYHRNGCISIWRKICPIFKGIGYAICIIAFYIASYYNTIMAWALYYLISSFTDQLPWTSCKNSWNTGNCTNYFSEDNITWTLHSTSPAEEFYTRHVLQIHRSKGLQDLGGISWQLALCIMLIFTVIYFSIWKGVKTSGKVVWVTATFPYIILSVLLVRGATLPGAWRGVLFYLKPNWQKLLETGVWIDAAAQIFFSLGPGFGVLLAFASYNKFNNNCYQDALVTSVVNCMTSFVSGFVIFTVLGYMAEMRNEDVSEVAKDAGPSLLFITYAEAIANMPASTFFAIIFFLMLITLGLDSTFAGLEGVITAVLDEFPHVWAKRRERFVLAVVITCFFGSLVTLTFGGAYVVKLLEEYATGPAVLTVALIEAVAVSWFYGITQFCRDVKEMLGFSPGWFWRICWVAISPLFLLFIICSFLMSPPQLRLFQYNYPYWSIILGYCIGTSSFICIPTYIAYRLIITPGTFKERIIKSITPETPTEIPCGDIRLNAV

Row | Compound | pIC50 (hSERT; [1]) | efficacy of uptake inhibition at hSERT (hSERT) | enhancement by monensin of drug-evoked [3H]-MPP+ release at hDAT (AUC) (hDAT) | pIC50 (hSERT; read-out: IC50 on uptake mediated by hSERT)
1 | CNC(C)C(=O)c1ccc(C)cc1.Cl (stereo not drawn) [Mephedrone, 2‐Methylamino‐1‐(p‐tolyl)propan‐1‐one hydrochloride] | 5.11 | fully efficacious inhibitors of uptake | significant | –
2 | Cc1ccc(C(=O)C(C)N)cc1.Cl (stereo not drawn) [Nor‐mephedrone, 2‐amino‐1‐(p‐tolyl)propan‐1‐one hydrochloride] | 4.97 | fully efficacious inhibitors of uptake | significant | –
3 | CNC(C)C(=O)c1ccc(CO)cc1.Cl (stereo not drawn) [4‐OH‐mephedrone, 1‐(4‐(hydroxymethyl)phenyl)‐2‐(methylamino)propan‐1‐one hydrochloride] | – | fully efficacious inhibitors of uptake | significant | 4.13

— PMC4978154, “Phase I metabolites of mephedrone display biological activity as substrates at monoamine transporters” (British Journal of Pharmacology, 2016)
